Measurements from paper PMC11178787, “Development of a natural product optimization strategy for inhibitors against MraY, a promising antibacterial target” (Nature Communications, 2024).
In brackets after ≈: the same amount, converted by molar mass.

Key:
Assay in all cases: microbe, parasite or virus in culture
[1] = system: T1, A. baumannii ATCC 19606; conditions: Acinetobacter baumannii, ATCC19606
T1 construct: ATCC 19606
Protocol: (§1) MICs were determined by a microdilution broth method as recommended by the CLSI with MHB-II. For MICs of stable analogues, a 2-fold dilution of each compound was prepared in DMSO at 100-fold of the final concentration. The strains were inoculated with 5 × 10^5 cfu/mL in 96-well plates (each 100 μL/well), and 1 μL of DMSO solutions of the samples were added (contained less than 1% DMSO). The plates were incubated at 37 °C for 18 h and then MICs were determined. MICs of stable analogues in Table 1 were the highest value in three trials. MICs in Supplementary Table 1 were determined in one trial.  Fig. 2 Results of biological evaluations of hydrazone library. a General structures of hydrazine fragment moiety are shown. Each hydrazine class are represented by different colours (green; BZ, cyan; PA, grey; AC, yellow; AA, orange; LA). b–h MraY inhibitory activity and antibacterial activity of the hydrazone library. The bar graphs show the relative enzyme activity with DMSO as 100% when the compound is treated at given concentration (b,c; TUN at 100 nM, d,e; MRY at 10 nM, f.g; MRD at 100 nM, h; CAP at 1000 nM. n = 1), with the lower bars indicating higher inhibitory activity. The colour of the bars corresponds to Fig. 2a. […] Data of control compounds (van: vancomycin, col: colistin) are shown left column in each panel. E. faecium ATCC 35667, S. aureus ATCC 29213, P. aeruginosa ATCC 27853, K. pneumoniae ATCC 13883, E. cloacae ATCC 13047, A. baumannii ATCC 19606, E. coli ATCC 25922.

[2] = system: T2, E. cloacae ATCC 13047; conditions: Enterobacter cloacae, ATCC13047
T2 construct: ATCC 13047
Protocol: as §1

[3] = system: T3, E. coli ATCC 25922; conditions: Escherichia coli, ATCC25922
T3 construct: ATCC 25922
Protocol: as §1

[4] = system: T4, E. faecium ATCC 35667; conditions: Enterococcus faecium, ATCC35667
T4 construct: ATCC 35667
Protocol: as §1

[5] = system: T5, S. aureus ATCC 29213; conditions: Staphylococcus aureus, ATCC29213
T5 construct: ATCC 29213
Protocol: as §1

[6] = system: T6, Enterococcus faecalis 23; parameters: CLSI broth microdilution MIC in MHB-II; conditions: Enterococcus faecalis, 23, 18 h, read-out: MIC
T6 construct: 23
Protocol: (§2) MICs were determined by a microdilution broth method as recommended by the CLSI with MHB-II. For MICs of stable analogues, a 2-fold dilution of each compound was prepared in DMSO at 100-fold of the final concentration. The strains were inoculated with 5 × 10^5 cfu/mL in 96-well plates (each 100 μL/well), and 1 μL of DMSO solutions of the samples were added (contained less than 1% DMSO). The plates were incubated at 37 °C for 18 h and then MICs were determined. MICs of stable analogues in Table 1 were the highest value in three trials. MICs in Supplementary Table 1 were determined in one trial.

[7] = system: T7, Enterococcus faecalis 26; parameters: CLSI broth microdilution MIC in MHB-II; conditions: Enterococcus faecalis, 26, 18 h, read-out: MIC
T7 construct: 26
Protocol: as §2

[8] = system: T8, Enterococcus faecalis 28; parameters: CLSI broth microdilution MIC in MHB-II; conditions: Enterococcus faecalis, 28, 18 h, read-out: MIC
T8 construct: 28
Protocol: as §2

[9] = system: T9, Enterococcus faecalis 29; parameters: CLSI broth microdilution MIC in MHB-II; conditions: Enterococcus faecalis, 29, 18 h, read-out: MIC
T9 construct: 29
Protocol: as §2

[10] = system: T10, Enterococcus faecalis 30; parameters: CLSI broth microdilution MIC in MHB-II; conditions: Enterococcus faecalis, 30, 18 h, read-out: MIC
T10 construct: 30
Protocol: as §2

[11] = system: T11, Enterococcus faecium 11; parameters: CLSI broth microdilution MIC in MHB-II; conditions: Enterococcus faecium, 11, 18 h, read-out: MIC
T11 construct: 11
Protocol: as §2

[12] = system: Enterococcus faecium 2; parameters: CLSI broth microdilution MIC in MHB-II; conditions: Enterococcus faecium, 2, 18 h, read-out: MIC
Protocol: as §2

[13] = system: Enterococcus faecium 3; parameters: CLSI broth microdilution MIC in MHB-II; conditions: Enterococcus faecium, 3, 18 h, read-out: MIC
Protocol: as §2

[14] = system: Enterococcus faecium 4; parameters: CLSI broth microdilution MIC in MHB-II; conditions: Enterococcus faecium, 4, 18 h, read-out: MIC
Protocol: as §2

[15] = system: Enterococcus faecium 5; parameters: CLSI broth microdilution MIC in MHB-II; conditions: Enterococcus faecium, 5, 18 h, read-out: MIC
Protocol: as §2

[16] = system: Enterococcus faecium 7; parameters: CLSI broth microdilution MIC in MHB-II; conditions: Enterococcus faecium, 7, 18 h, read-out: MIC
Protocol: as §2

[17] = system: Enterococcus faecium 8; parameters: CLSI broth microdilution MIC in MHB-II; conditions: Enterococcus faecium, 8, 18 h, read-out: MIC
Protocol: as §2

[18] = system: T12, Staphylococcus aureus #2334; parameters: CLSI broth microdilution MIC in MHB-II; conditions: Staphylococcus aureus, 18 h, read-out: MIC
T12 construct: #2334
Protocol: as §2

[19] = system: T13, Staphylococcus aureus #2931; parameters: CLSI broth microdilution MIC in MHB-II; conditions: Staphylococcus aureus, 18 h, read-out: MIC
T13 construct: #2931
Protocol: as §2

[20] = system: T14, Staphylococcus aureus #2932; parameters: CLSI broth microdilution MIC in MHB-II; conditions: Staphylococcus aureus, 18 h, read-out: MIC
T14 construct: #2932
Protocol: as §2

Row | Structure (SMILES) | MIC [1] [µM] | MIC [2] [µM] | MIC [3] [µM] | MIC [4] [µM] | MIC [5] [µM] | MIC [6] [µg/mL] | MIC [7] [µg/mL] | MIC [8] [µg/mL] | MIC [9] [µg/mL] | MIC [10] [µg/mL] | MIC [11] [µg/mL] | MIC [12] [µg/mL] | MIC [13] [µg/mL] | MIC [14] [µg/mL] | MIC [15] [µg/mL] | MIC [16] [µg/mL] | MIC [17] [µg/mL] | MIC [18] [µg/mL] | MIC [19] [µg/mL] | MIC [20] [µg/mL]
1 | CC1(C)S[C@@H]2[C@H](NC(=O)[C@H](N)c3ccccc3)C(=O)N2[C@H]1C(=O)O [ampicillin] | 50 (≈ 17.5 µg/mL) | > 50 | 50 (≈ 17.5 µg/mL) | < 0.5 | 5 (≈ 1.75 µg/mL) | 1 (≈ 2.86 µM) | 1 (≈ 2.86 µM) | 1 (≈ 2.86 µM) | 1 (≈ 2.86 µM) | 0.5 (≈ 1.43 µM) | 128 (≈ 366 µM) | 128 (≈ 366 µM) | > 128 | 128 (≈ 366 µM) | 128 (≈ 366 µM) | 0.5 (≈ 1.43 µM) | 128 (≈ 366 µM) | 16 (≈ 45.8 µM) | 32 (≈ 91.6 µM) | 32 (≈ 91.6 µM)
2 | CCCCCCCCCCCCCCCC(=O)N[C@@H](CCCCN)C(=O)NCc1cccc(CN[C@H](C(=O)O)[C@H](O[C@@H]2O[C@H](CN)[C@@H](O)[C@H]2O)[C@H]2O[C@@H](n3ccc(=O)[nH]c3=O)[C@H](O)[C@@H]2O)c1 [compound 2, analogue 2] |  |  |  |  |  | 0.25 (≈ 0.268 µM) | 0.13 (≈ 0.139 µM) | < 0.06 | 0.13 (≈ 0.139 µM) | 0.25 (≈ 0.268 µM) | 1 (≈ 1.07 µM) | 1 (≈ 1.07 µM) | 1 (≈ 1.07 µM) | 0.5 (≈ 0.535 µM) | 1 (≈ 1.07 µM) | 2 (≈ 2.14 µM) | 0.5 (≈ 0.535 µM) | 1 (≈ 1.07 µM) | 0.5 (≈ 0.535 µM) | 1 (≈ 1.07 µM)
3 | CCCCCCCCCCCCCCCC(=O)N[C@@H](CCCNC(=N)N)C(=O)NCc1ccc(CN[C@H](C(=O)O)[C@H](O[C@@H]2O[C@H](CN)[C@@H](O)[C@H]2O)[C@H]2O[C@@H](n3ccc(=O)[nH]c3=O)[C@H](O)[C@@H]2O)cc1 [compound 3, analogue 3] |  |  |  |  |  | 0.13 (≈ 0.135 µM) | 0.13 (≈ 0.135 µM) | < 0.06 | 0.25 (≈ 0.26 µM) | 0.25 (≈ 0.26 µM) | 1 (≈ 1.04 µM) | 1 (≈ 1.04 µM) | 1 (≈ 1.04 µM) | 0.5 (≈ 0.52 µM) | 1 (≈ 1.04 µM) | 1 (≈ 1.04 µM) | 0.5 (≈ 0.52 µM) | 1 (≈ 1.04 µM) | 1 (≈ 1.04 µM) | 2 (≈ 2.08 µM)
4 | CCCCCCCCCCCCCCCC(=O)N[C@@H](CCCNC(=N)N)C(=O)NCc1cccc(CN[C@H](C(=O)O)[C@H](O[C@@H]2O[C@H](CN)[C@@H](O)[C@H]2O)[C@H]2O[C@@H](n3ccc(=O)[nH]c3=O)[C@H](O)[C@@H]2O)c1 [compound 4, analogue 4] |  |  |  |  |  | 0.13 (≈ 0.135 µM) | 0.25 (≈ 0.26 µM) | < 0.06 | < 0.06 | 0.25 (≈ 0.26 µM) | 1 (≈ 1.04 µM) | 2 (≈ 2.08 µM) | 1 (≈ 1.04 µM) | 0.5 (≈ 0.52 µM) | 1 (≈ 1.04 µM) | 1 (≈ 1.04 µM) | 0.5 (≈ 0.52 µM) | 2 (≈ 2.08 µM) | 1 (≈ 1.04 µM) | 2 (≈ 2.08 µM)
5 | CCCCCCCCCCCCCCCC(=O)N[C@@H](CCCCN)C(=O)Nc1ccc(CN[C@H](C(=O)O)[C@H](O[C@@H]2O[C@H](CN)[C@@H](O)[C@H]2O)[C@H]2O[C@@H](n3ccc(=O)[nH]c3=O)[C@H](O)[C@@H]2O)cc1 [compound 5, analogue 5] |  |  |  |  |  | 0.13 (≈ 0.141 µM) | 0.13 (≈ 0.141 µM) | < 0.06 | < 0.06 | 0.13 (≈ 0.141 µM) | 0.5 (≈ 0.543 µM) | 0.5 (≈ 0.543 µM) | 0.5 (≈ 0.543 µM) | 0.25 (≈ 0.272 µM) | 0.5 (≈ 0.543 µM) | 0.5 (≈ 0.543 µM) | 0.25 (≈ 0.272 µM) | 1 (≈ 1.09 µM) | 0.25 (≈ 0.272 µM) | 1 (≈ 1.09 µM)
6 | CCCCCCCCCCCCCCCC(=O)N[C@@H](CCCCN)C(=O)Nc1cccc(CN[C@H](C(=O)O)[C@H](O[C@@H]2O[C@H](CN)[C@@H](O)[C@H]2O)[C@H]2O[C@@H](n3ccc(=O)[nH]c3=O)[C@H](O)[C@@H]2O)c1 [compound 6, analogue 6] |  |  |  |  |  | 0.5 (≈ 0.543 µM) | 0.25 (≈ 0.272 µM) | 0.13 (≈ 0.141 µM) | 0.25 (≈ 0.272 µM) | 0.5 (≈ 0.543 µM) | 1 (≈ 1.09 µM) | 1 (≈ 1.09 µM) | 1 (≈ 1.09 µM) | 0.5 (≈ 0.543 µM) | 1 (≈ 1.09 µM) | 2 (≈ 2.17 µM) | 0.5 (≈ 0.543 µM) | 1 (≈ 1.09 µM) | 0.5 (≈ 0.543 µM) | 
7 | CCCCCCCCCCCCCCCC(=O)N[C@@H](CCCNC(=N)N)C(=O)Nc1ccc(CN[C@H](C(=O)O)[C@H](O[C@@H]2O[C@H](CN)[C@@H](O)[C@H]2O)[C@H]2O[C@@H](n3ccc(=O)[nH]c3=O)[C@H](O)[C@@H]2O)cc1 [compound 7, analogue 7] |  |  |  |  |  | 0.5 (≈ 0.527 µM) | 0.13 (≈ 0.137 µM) | < 0.06 | < 0.06 | 0.25 (≈ 0.264 µM) | 2 (≈ 2.11 µM) | 0.5 (≈ 0.527 µM) | 1 (≈ 1.05 µM) | 0.5 (≈ 0.527 µM) | 0.5 (≈ 0.527 µM) | 0.5 (≈ 0.527 µM) | 0.5 (≈ 0.527 µM) | 2 (≈ 2.11 µM) | 1 (≈ 1.05 µM) | 
8 | CCCCCCCCCCCCCCCC(=O)N[C@@H](CCCNC(=N)N)C(=O)Nc1cccc(CN[C@H](C(=O)O)[C@H](O[C@@H]2O[C@H](CN)[C@@H](O)[C@H]2O)[C@H]2O[C@@H](n3ccc(=O)[nH]c3=O)[C@H](O)[C@@H]2O)c1 [compound 8, analogue 8] |  |  |  |  |  | 0.25 (≈ 0.264 µM) | 0.25 (≈ 0.264 µM) | < 0.06 | 0.13 (≈ 0.137 µM) | 0.5 (≈ 0.527 µM) | 2 (≈ 2.11 µM) | 2 (≈ 2.11 µM) | 2 (≈ 2.11 µM) | 1 (≈ 1.05 µM) | 1 (≈ 1.05 µM) | 1 (≈ 1.05 µM) | 1 (≈ 1.05 µM) |  | 1 (≈ 1.05 µM) | 2 (≈ 2.11 µM)
9 | C[C@H]1COc2c(N3CCN(C)CC3)c(F)cc3c(=O)c(C(=O)O)cn1c23 [levofloxacin] |  |  |  |  |  | 1 (≈ 2.77 µM) | 0.5 (≈ 1.38 µM) | 1 (≈ 2.77 µM) | 0.5 (≈ 1.38 µM) | 1 (≈ 2.77 µM) | > 32 | > 32 | > 32 | > 32 | 32 (≈ 88.6 µM) | 0.5 (≈ 1.38 µM) | > 32 | > 32 | 16 (≈ 44.3 µM) | > 32
